# Test results reported in US6545031B1, “Endothelin receptor antagonists” (SmithKline Beecham Corporation, priority 1995, dated 2003).
row,Compound,melting point
1,"CCCCn1ncc(/C=C(\Cc2cc3c(cc2OC)OCO3)C(=O)O)c1-c1ccc(OC)cc1OCc1ccccc1C(=O)O [Example 1, (E)-alpha-[[1-n-Butyl-5-[2-[(2-carboxyphenyl)methoxy]-4-methoxyphenyl]-1H-pyrazol-4-yl]methylene]-6-methoxy-1,3-benzodioxole-5-propanoic Acid]",213 to 214 °C
2,"CCCCn1cc(/C=C(\Cc2cc3c(cc2OC)OCO3)C(=O)O)c(-c2ccc(OC)cc2OCc2ccccc2C(=O)O)n1 [Example 2, (E)-alpha-[[1-n-Butyl-3-[2-[(2-carboxyphenyl)methoxy]-4-methoxyphenyl]-1H-pyrazol-4-yl]methylene]-6-methoxy-1,3-benzodioxole-5-propanoic Acid]",226 to 227 °C
